Source: patent US5605929A, “Methods and compositions for inhibiting 5α-reductase activity” (priority 1995, dated 1997)
Where two headings read alike, the source gives them in different places.

How the values were obtained:
[1] = target: T1, 5α-Reductase of Rat Liver Microsomes (Rattus norvegicus, UniProt P24008); test: [3H]4-MA binding assay, rat liver microsomes (tea catechins); conditions: for inhibition at 5 µM / inhibition at 10 µM / inhibition at 20 µM / inhibition at 40 µM / inhibition at 200 µM: read-out: % Inhibition of [^3 H]4-MA binding; for inhibitory activity: concentrations up to 200 μM
T1 sequence (P24008 1-259): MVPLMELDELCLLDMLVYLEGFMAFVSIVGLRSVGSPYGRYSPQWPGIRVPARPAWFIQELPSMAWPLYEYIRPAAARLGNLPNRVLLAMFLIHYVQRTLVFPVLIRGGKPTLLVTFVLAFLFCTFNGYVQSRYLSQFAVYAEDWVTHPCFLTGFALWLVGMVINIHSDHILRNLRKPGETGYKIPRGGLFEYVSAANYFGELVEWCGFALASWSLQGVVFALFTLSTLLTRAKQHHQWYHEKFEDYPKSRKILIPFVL
Method: Microsomes were prepared as described previously (Liang and Liao, 1992) from the liver of adult Sprague-Dawley female rats or Rat-1A cells expressing a specific type of human 5α-reductase. Each study was carried out in duplicate or triplicate which were usually within 10% of each other. Several studies were preformed to assure that the results shown are representative. The data presented was based on the rate of reaction.
[^3 H]4-MA binding assay were described in detail previously (Liang and Liao, 1992; Liang et al., 1983). […] The reaction was started by the addition of 25 μl of microsomes (25 μg protein). After 30-60 min incubation at 0° C., the [^3 H]4-MA bound to microsomes was collected on a Whatman GF/F glass fiber, washed and radioactivity determined (Liang and Liao, 1992).

[2] = target: T1, 5α-Reductase of Rat Liver Microsomes
hamster flank organ = test: Flank organ, castrated immature male hamsters, topical treatment; type: in vivo, Syrian golden hamster; conditions: for effect on the contralateral flank organ: topical to right flank organ; for Percent Inhibition / Pigmented macule Right (+T): Table 5, T 0.5 μg + fatty acid 1 mg; for Percent Inhibition / Pigmented macule Right (+T) / Pigmented macule Left: 21 days; for Pigmented macule Right (+T): T alone 49.6 ± 8.3; for Pigmented macule Left: Table 5, fatty acid 1 mg without T; for inhibition of T-induced growth of pigmented macule: hamster, in vivo
Method: One to two weeks after castration, the hair on the lower back of each animal was clipped with an electric hair clipper and then shaved weekly to expose the flank organs. The animals were divided into 5 animals/treatment group. A treatment solution (5 μl) was applied topically to the right flank organ once a day using a Pipetteman and a polypropylene disposable tip. Unless specified the left flank organ was not treated. The treatment solution contained either (a) ethanol alone (vehicle and control), (b) an androgen (T or 5α-DHT), (c) a fatty acid, or (d) a combination of an androgen and a fatty acid. The flank organ was wiped with an alcohol pad to remove residual compound before each treatment. […] The flank organs, both the treated and untreated sides, were evaluated with methods to be described below to determine the effect of these treatments of the growth of the pigmented macules and the sebaceous glands. The body weight of each animal was recorded before and after treatment.
The data are presented as mean ± standard deviation. […]

[3] = target: T1, 5α-Reductase of Rat Liver Microsomes; test: biochemical; conditions: for inhibition at 5 µM: read-out: % Inhibition of [^3 H]4-MA binding, Table 2, 5 μM
[4] = read-out: % Inhibition of [^3 H]4-MA binding, Table 1, 10 μM
[5] = read-out: % Inhibition of [^3 H]4-MA binding, Table 1, 40 μM
[6] = read-out: % Inhibition of [^3 H]4-MA binding, Table 1, 200 μM
[7] = read-out: % Inhibition of [^3 H]4-MA binding, Table 2, 10 μM
[8] = read-out: % Inhibition of [^3 H]4-MA binding, Table 2, 40 μM
[9] = read-out: % Inhibition of [^3 H]4-MA binding, Table 2, 200 μM
[10] = read-out: % Inhibition of [^3 H]4-MA binding

Oc1cc(O)c2c(c1)O[C@H](c1ccc(O)c(O)c1)[C@@H](O)C2 (relative stereo) [(±)Catechin]
inhibition at 5 µM ([1]; Table 8, 5 μM): < 10% | inhibition at 10 µM ([1]; Table 8, 10 μM): < 10% | inhibition at 20 µM ([1]; Table 8, 20 μM): < 10% | inhibition at 40 µM ([1]; Table 8, 40 μM): < 10% | inhibition at 200 µM ([1]; Table 8, 200 μM): < 10%

CCCCCCCC/C=C\CCCCCCCC(=O)OCC(O)COC(=O)CCCCCCC/C=C\CCCCCCCC [3-diolein]
inhibitory activity in [^3 H]4-MA binding assay [2]: slightly stimulatory

C[C@]12CCC(=O)C[C@@H]1CC[C@@H]1[C@@H]2CC[C@]2(C)[C@@H](O)CC[C@@H]12 [5α-DHT, 5α-dihydrotestosterone, reference compound]
effect on the contralateral flank organ (hamster flank organ): no detectable effect

Oc1cc(O)c2c(c1)O[C@H](c1ccc(O)c(O)c1)[C@@H](O)C2 [(+)Catechin]
inhibition at 5 µM ([1]; Table 8, 5 μM): < 10% | inhibition at 10 µM ([1]; Table 8, 10 μM): < 10% | inhibition at 20 µM ([1]; Table 8, 20 μM): < 10% | inhibition at 40 µM ([1]; Table 8, 40 μM): < 10% | inhibition at 200 µM ([1]; Table 8, 200 μM): < 10%

Oc1cc(O)c2c(c1)O[C@@H](c1cc(O)c(O)c(O)c1)[C@H](O)C2 [(-)Gallocatechin]
inhibition at 5 µM [1]: < 10% | inhibition at 10 µM [1]: < 10% | inhibition at 20 µM [1]: < 10% | inhibition at 40 µM [1]: < 10% | inhibition at 200 µM [1]: < 10%

CCCCC/C=C\C/C=C\C/C=C\C/C=C\CCCC(=O)O [Arachidonic acid]
Percent Inhibition (hamster flank organ): 28% | Pigmented macule Right (+T) (hamster flank organ): 35.7 ± 7.9 mm^2 | Pigmented macule Left (hamster flank organ): 4.7 ± 1.6 mm^2 | inhibition of T-induced growth of pigmented macule (hamster flank organ): Weak inhibitions | IC50 [3]: 65 µM | inhibition at 10 µM [3, 4]: < 10% | inhibition at 40 µM [3, 5]: 30 ± 10% | inhibition at 200 µM [3, 6]: 88 ± 5% | inhibition at 10 µM [3, 7]: < 10% | inhibition at 40 µM [3, 8]: 30% | inhibition at 200 µM [3, 9]: 88%

O=C(O[C@H]1Cc2c(O)cc(O)cc2O[C@@H]1c1ccc(O)c(O)c1)c1cc(O)c(O)c(O)c1 [CG, (-)Catechin-3-gallate]
inhibition at 5 µM [1]: 12% | inhibition at 10 µM [1]: 31% | inhibition at 20 µM [1]: 53% | inhibition at 40 µM [1]: 73% | inhibition at 200 µM [1]: 91% | IC50 ([1]; type 1 5α-reductase of rat liver microsomes, read-out: IC50): 18 µM

Cn1c(=O)c2c(ncn2C)n(C)c1=O [Caffeine, reference compound]
inhibitory activity [1]: not active

CCCCC/C=C\C/C=C\CCCCCCCC(=O)O [Linoleic acid]
Percent Inhibition (hamster flank organ): 52% | Pigmented macule Right (+T) (hamster flank organ): 23.9 ± 5.0 mm^2 | Pigmented macule Left (hamster flank organ): 5.4 ± 1.6 mm^2 | inhibition of T-induced growth of pigmented macule (hamster flank organ): active | IC50 [3]: 117 µM | inhibition at 10 µM [3, 4]: < 10% | inhibition at 40 µM [3, 5]: 12 ± 3% | inhibition at 200 µM [3, 6]: 86 ± 4% | inhibition at 10 µM [3, 7]: < 10% | inhibition at 40 µM [3, 8]: 12% | inhibition at 200 µM [3, 9]: 86%

CCCCCCCC/C=C\CCCCCCCC(=O)O [Oleic acid]
Percent Inhibition (hamster flank organ): 43% | Pigmented macule Right (+T) (hamster flank organ): 28.1 ± 8.3 mm^2 | Pigmented macule Left (hamster flank organ): 4.7 ± 0.5 mm^2 | inhibition of T-induced growth of pigmented macule (hamster flank organ): active | IC50 [3]: 128 µM | inhibition at 10 µM [3, 4]: < 10% | inhibition at 40 µM [3, 5]: 16 ± 6% | inhibition at 200 µM [3, 6]: 63 ± 12% | inhibition at 5 µM [3]: < 10% | inhibition at 10 µM [3, 7]: < 10% | inhibition at 40 µM [3, 8]: 16% | inhibition at 200 µM [3, 9]: 63%

CCCCCCCCCCCCCCCC(=O)O [Palmitic acid]
Percent Inhibition (hamster flank organ): 25% | Pigmented macule Right (+T) (hamster flank organ): 37.2 ± 6.3 mm^2 | Pigmented macule Left (hamster flank organ): 5.1 ± 2.9 mm^2 | inhibition of T-induced growth of pigmented macule (hamster flank organ): Weak inhibitions | inhibition at 200 µM [3, 6]: < 10% | inhibition at 200 µM [3, 9]: < 10%

CCCCC[C@H](O)/C=C/[C@@H]1[C@H]2C/C(=C/CCCC(=O)O)O[C@H]2C[C@H]1O [Prostaglandin 12]
inhibitory activity in [^3 H]4-MA binding assay [2]: not active

CCCCC[C@H](O)/C=C/[C@H]1[C@H](O)CC(=O)[C@@H]1C/C=C\CCCC(=O)O [Prostaglandin E2]
inhibitory activity in [^3 H]4-MA binding assay [2]: not active

CCCCC[C@H](O)/C=C/[C@@H]1[C@@H](C/C=C\CCCC(=O)O)[C@@H](O)C[C@H]1O [Prostaglandin F2a]
inhibitory activity in [^3 H]4-MA binding assay [2]: not active

C[C@]12CC[C@H]3[C@@H](CCC4=CC(=O)CC[C@@]43C)[C@@H]1CC[C@@H]2O [T, Testosterone, reference compound]
Pigmented Macule, Untreated (L) (hamster flank organ; Table 4, T 0.5 μg alone, 18 days): 3.6 ± 0.5 mm^2 | effect on the contralateral flank organ (hamster flank organ): no detectable effect

CC/C=C\C/C=C\C/C=C\CCCCCCCC(=O)OC [linolenic acid methyl ester]
% Inhibition of [^3 H]4-MA binding ([2]; Table 1, 200 μM, 200 µM): 32%

CCCCC[C@H](O)/C=C/[C@H]1C=CC(=O)[C@@H]1CCCCCCC(=O)O [prostaglandin A1]
inhibitory activity in [^3 H]4-MA binding assay ([2]; 0.2 mM): somewhat active

O=c1c(O)c(-c2ccc(O)c(O)c2)oc2cc(O)cc(O)c12 [quercetin, reference compound]
inhibitory activity [1]: inactive

CC/C=C\C/C=C\C/C=C\CCCCCCCC(=O)O [α-Linolenic acid, α-linolenic acid]
Percent Inhibition (hamster flank organ): 44% | Pigmented macule Right (+T) (hamster flank organ): 27.6 ± 8.2 mm^2 | Pigmented macule Left (hamster flank organ): 4.1 ± 1.2 mm^2 | inhibition of T-induced growth of pigmented macule (hamster flank organ): less active than γ-LA | inhibition at 10 µM [3, 4]: 19 ± 3% | inhibition at 40 µM [3, 5]: 27 ± 7% | inhibition at 200 µM [3, 6]: 84 ± 6% | inhibition at 5 µM [3]: < 10% | inhibition at 10 µM [3, 7]: 19% | inhibition at 40 µM [3, 8]: 27% | inhibition at 200 µM [3, 9]: 84%

CC/C=C\C/C=C\C/C=C\CCCCCCCCO [α-Linolenyl alcohol]
inhibition at 10 µM [3, 10]: < 10% | inhibition at 40 µM [3, 10]: < 10% | inhibition at 200 µM [3, 10]: 24 ± 1%

CCCCC/C=C\C/C=C\C/C=C\CCCCC(=O)Cl [γ-Linolenoyl Chloride, γ-linolenoyl chloride]
IC50 [3]: > 200 µM | inhibition at 10 µM [3, 7]: < 10% | inhibition at 40 µM [3, 8]: < 10% | inhibition at 200 µM [3, 9]: < 10%

CCCCC/C=C\C/C=C\C/C=C\CCCCCOC(C)=O [γ-Linolenyl Acetate, γ-linolenyl acetate]
IC50 [3]: > 200 µM | inhibition at 5 µM [3]: < 10% | inhibition at 10 µM [3, 7]: < 10% | inhibition at 40 µM [3, 8]: < 10% | inhibition at 200 µM [3, 9]: 27%

CCCCC/C=C\C/C=C\C/C=C\CCCCCO [γ-Linolenyl Alcohol, γ-linolenyl alcohol]
IC50 [3]: > 200 µM | inhibition at 5 µM [3]: < 10% | inhibition at 10 µM [3, 7]: < 10% | inhibition at 40 µM [3, 8]: < 10% | inhibition at 200 µM [3, 9]: 41%

naphthaflavone [reference compound]
inhibitory activity [1]: inactive
